Measured values taken from US11787850B2, “Peptidic TGF-beta antagonists” (priority 2015, dated 2023).

Tested on: TGF-β-induced fibrotic response in primary human fibroblasts isolated from scleroderma patients
Test: Immunoblot of fibrotic markers in scleroderma patient fibroblasts
Assay type: cell-based
Details: various concentrations of P16, 20 pM TGF-β, 24 hours (FIG. 31)
Excerpt: (FIG. 30A) Cell lysates were separated by gel electrophoresis, transferred to a membrane, and immunoblotted with antibodies against the indicated proteins. (FIG. 30B) The data shown represent the mean expression levels of 3 different biological replicates calculated by densitometry of fibronectin, PAI-1, and CTGF intensity levels normalized to α-tubulin. Error bars represent the standard deviation of the replicate experiments. A single asterisk designates a t test P value of less than 0.05.
Fibroblasts were starved for 36 hours, then treated with 20 pM TGF-β and various concentrations of P16 as indicated for 24 hours. (FIG. 31A) Cell lysates were separated by gel electrophoresis, transferred to a membrane, and immunoblotted with antibodies against the indicated proteins. (FIG. 31B) The data shown represent the mean expression levels of 3 different biological replicates calculated by densitometry of fibronectin, PAI-1, and CTGF intensity levels normalized to α-tubulin. Error bars represent the standard deviation of the replicate experiments. A single asterisk designates a t test P value of less than 0.05, and a double asterisk indicates a P value of less than 0.01.

ETWIWLDTNMGSRIYQ [Peptide P16]
inhibition of TGF-β-induced fibrotic response, dose-dependent: inhibit
